Values of other authors as cited in paper PMC6858927 (Investigational new drugs, 2019).

Test system: AML cells with TKD mutants
Conditions: cited from earlier work

Row | SMILES | sensitivity of AML cells with TKD mutants
1 | CNC(=O)c1cc(Oc2ccc(NC(=O)Nc3ccc(Cl)c(C(F)(F)F)c3)cc2)ccn1 [sorafenib] | highly resistant
2 | CC(C)(C)c1cc(NC(=O)Nc2ccc(-c3cn4c(n3)sc3cc(OCCN5CCOCC5)ccc34)cc2)no1 [quizartinib] | highly resistant
